Source: ChEMBL document CHEMBL3217422, “Design of membrane targeting tobramycin-based cationic amphiphiles with reduced hemolytic activity” (Medchemcomm, 2013)
In brackets after ≈: the same amount, converted by molar mass.

Experiments:
[1] = Induction of hemolysis in rat RBC assessed as hemoglobin release at 128 ug/ml after 1 hr by microplate reader analysis; format: cell-based, Erythrocyte; conditions: red blood cells, read-out: Activity
[2] = Induction of hemolysis in rat RBC assessed as hemoglobin release at 64 ug/ml after 1 hr by microplate reader analysis; format: cell-based, Erythrocyte; conditions: red blood cells, read-out: Activity
[3] = system: Staphylococcus epidermidis; assay: Antibacterial activity against Staphylococcus epidermidis ATCC 35984 assessed as biofilm growth inhibition after 24 hrs by double dilution method; format: functional
Streptococcus mutans [4] = assay: Antibacterial activity against Streptococcus mutans UA159 assessed as biofilm growth inhibition after 24 hrs by double dilution method; format: functional
Shigella sonnei [5] = assay: Antibacterial activity against O-antigen negative Shigella sonnei clinical isolate 6831 assessed as growth inhibition after 24 hrs by double dilution method; format: functional; conditions: isolate 6831, 24 h
Shigella sonnei [6] = assay: Antibacterial activity against O-antigen positive Shigella sonnei clinical isolate 6831 assessed as growth inhibition after 24 hrs by double dilution method; format: functional; conditions: isolate 6831, 24 h
Pseudomonas aeruginosa = assay: Antibacterial activity against Pseudomonas aeruginosa ATCC 33347 assessed as growth inhibition after 24 hrs by double dilution method; format: functional; conditions: ATCC 33347, 24 h
[7] = system: Staphylococcus epidermidis; assay: Antibacterial activity against Staphylococcus epidermidis ATCC 12228 assessed as growth inhibition after 24 hrs by double dilution method; format: functional; conditions: ATCC 12228, 24 h
[8] = system: Staphylococcus epidermidis; assay: Antibacterial activity against Staphylococcus epidermidis ATCC 35984 assessed as growth inhibition after 24 hrs by double dilution method; format: functional; conditions: ATCC 35984, 24 h
Staphylococcus aureus [9] = assay: Antibacterial activity against Staphylococcus aureus ATCC 9144 assessed as growth inhibition after 24 hrs by double dilution method; format: functional; conditions: ATCC 9144, 24 h
Enterococcus faecalis = assay: Antibacterial activity against Enterococcus faecalis ATCC 29212 assessed as growth inhibition after 24 hrs by double dilution method; format: functional; conditions: ATCC 29212, 24 h
Enterococcus = assay: Antibacterial activity against vancomycin-resistant Enterococcus assessed as growth inhibition after 24 hrs by double dilution method; format: functional
Streptococcus mutans [10] = assay: Antibacterial activity against Streptococcus mutans UA159 assessed as growth inhibition after 24 hrs by double dilution method; format: functional; conditions: UA159, 24 h
Staphylococcus aureus [11] = assay: Antibacterial activity against Methicillin-resistant Staphylococcus aureus assessed as growth inhibition after 24 hrs by double dilution method; format: functional
[12] = Antibacterial activity against Streptococcus pyogenes serotype M12 strain MGAS9429 assessed as growth inhibition after 24 hrs by double dilution method; format: functional; conditions: MGAS9429, 24 h
[13] = Induction of hemolysis in rat RBC assessed as hemoglobin release at 32 ug/ml after 1 hr by microplate reader analysis; format: cell-based, Erythrocyte; conditions: red blood cells, read-out: Activity
[14] = system: Streptococcus pyogenes serotype M12; assay: Ratio of tobramycin MIC to compound MIC against Streptococcus pyogenes serotype M12 strain MGAS9429 after 24 hrs by double dilution method; format: functional

SMILES | hemolysis at 1 h, 128 ug/ml [1] [%] | hemolysis at 1 h, 64 ug/ml [2] [%] | MBIC [3] [µg/mL] | MBIC (Streptococcus mutans [4]) [µg/mL] | MIC (Shigella sonnei [5]) [µg/mL] | MIC (Shigella sonnei [6]) [µg/mL] | MIC (Pseudomonas aeruginosa) [µg/mL] | MIC [7] [µg/mL] | MIC [8] [µg/mL] | MIC (Staphylococcus aureus [9]) [µg/mL] | MIC (Enterococcus faecalis) [µg/mL] | MIC (Enterococcus) [µg/mL] | MIC (Streptococcus mutans [10]) [µg/mL] | MIC (Staphylococcus aureus [11]) [µg/mL] | MIC [12] [µg/mL] | hemolysis at 1 h, 32 ug/ml [13] [%] | Ratio [14]
CCCCCCCCCCCCc1cn(C[C@H]2O[C@H](O[C@@H]3[C@@H](O)[C@H](O[C@H]4O[C@H](CN)[C@@H](O)C[C@H]4N)[C@@H](N)C[C@H]3N)[C@H](O)[C@@H](N)[C@@H]2O)nn1 | 89.1 | 26.3 | 16 | 4 | 64 (≈ 93.2 µM) | 64 (≈ 93.2 µM) | 64 (≈ 93.2 µM) | 16 (≈ 23.3 µM) | 8 (≈ 11.6 µM) | 16 (≈ 23.3 µM) | 128 (≈ 186 µM) | 32 (≈ 46.6 µM) | 4 (≈ 5.82 µM) | 128 (≈ 186 µM) | 8 (≈ 11.6 µM) | – | –
CCCCCCCCCCCCSC[C@H]1O[C@H](O[C@@H]2[C@@H](O)[C@H](O[C@H]3O[C@H](CN)[C@@H](O)C[C@H]3N)[C@@H](N)C[C@H]2N)[C@H](O)[C@@H](N)[C@@H]1O | 71.6 | – | 16 | 4 | 64 (≈ 98.2 µM) | 32 (≈ 49.1 µM) | 128 (≈ 196 µM) | 8 (≈ 12.3 µM) | 8 (≈ 12.3 µM) | 16 (≈ 24.5 µM) | 128 (≈ 196 µM) | 64 (≈ 98.2 µM) | 8 (≈ 12.3 µM) | 64 (≈ 98.2 µM) | 8 (≈ 12.3 µM) | – | –
CCCCCCCCCCCCCCc1cn(C[C@H]2O[C@H](O[C@@H]3[C@@H](O)[C@H](O[C@H]4O[C@H](CN)[C@@H](O)C[C@H]4N)[C@@H](N)C[C@H]3N)[C@H](O)[C@@H](N)[C@@H]2O)nn1 | – | 74.4 | 16 | 4 | 32 (≈ 44.8 µM) | 32 (≈ 44.8 µM) | 128 (≈ 179 µM) | 4 (≈ 5.59 µM) | 8 (≈ 11.2 µM) | 8 (≈ 11.2 µM) | 128 (≈ 179 µM) | 32 (≈ 44.8 µM) | 4 (≈ 5.59 µM) | 64 (≈ 89.5 µM) | 4 (≈ 5.59 µM) | 23 | 16
CCCCCCCCCCCCCCCCSC[C@H]1O[C@H](O[C@@H]2[C@@H](O)[C@H](O[C@H]3O[C@H](CN)[C@@H](O)C[C@H]3N)[C@@H](N)C[C@H]2N)[C@H](O)[C@@H](N)[C@@H]1O | – | 37.9 | – | – | 64 (≈ 90.4 µM) | 32 (≈ 45.2 µM) | > 128 | 4 (≈ 5.65 µM) | 8 (≈ 11.3 µM) | 16 (≈ 22.6 µM) | 128 (≈ 181 µM) | 64 (≈ 90.4 µM) | 4 (≈ 5.65 µM) | 64 (≈ 90.4 µM) | 4 (≈ 5.65 µM) | – | –
CCCCCCCCCCCCCCCCC(=O)NC[C@H]1O[C@H](O[C@@H]2[C@@H](O)[C@H](O[C@H]3O[C@H](CN)[C@@H](O)C[C@H]3N)[C@@H](N)C[C@H]2N)[C@H](O)[C@@H](N)[C@@H]1O | – | 37.9 | – | – | 32 (≈ 44.5 µM) | 32 (≈ 44.5 µM) | 128 (≈ 178 µM) | 4 (≈ 5.56 µM) | 4 (≈ 5.56 µM) | 8 (≈ 11.1 µM) | 128 (≈ 178 µM) | 32 (≈ 44.5 µM) | 4 (≈ 5.56 µM) | 32 (≈ 44.5 µM) | 8 (≈ 11.1 µM) | – | –
CCCCCCCCCCCCCCS(=O)(=O)C[C@H]1O[C@H](O[C@@H]2[C@@H](O)[C@H](O[C@H]3O[C@H](CN)[C@@H](O)C[C@H]3N)[C@@H](N)C[C@H]2N)[C@H](O)[C@@H](N)[C@@H]1O | – | 74.4 | 8 | 4 | 64 (≈ 89.9 µM) | 32 (≈ 44.9 µM) | 128 (≈ 180 µM) | 16 (≈ 22.5 µM) | 16 (≈ 22.5 µM) | 16 (≈ 22.5 µM) | 64 (≈ 89.9 µM) | 32 (≈ 44.9 µM) | 4 (≈ 5.62 µM) | 64 (≈ 89.9 µM) | 4 (≈ 5.62 µM) | 23 | –
